Patent US20190127705A1, “METHOD FOR CULTURING MULTIPLE OVARIAN FOLLICLES BY USING ANGIOTENSIN II RECEPTOR AGONIST” (SEOUL NATIONAL UNIVERSITY R&DB FOUNDATION, priority 2016, published 2019)
“Also recorded” adds a separate entry of the source.

Key:
Type in all cases: cell-based, mouse
[1] = system: single pre-antral follicle; assay: in vitro culturing of a single pre-antral follicle (growth, ovulation and maturation after ovulation induction); details: for ovulation rate / growth of the follicle: single-follicle culturing, 10 ug/mL from day 5; for ovulation rate: 16 to 18 hours after ovulation induction, versus untreated single-follicle, FIG. 2; for growth of the follicle: fifth day compared with 13th day, versus untreated control (CTL), FIG. 1
From the text: (§1) Specifically, an ovary was separated from a 14-day old mouse and placed in HBSS (Hank's balanced salt solution) containing 10% bovine serum. Then, pre-antral follicles in an early developmental stage were mechanically separated using a 28-gauge syringe needle. At this time, degenerated pre-antral follicles were removed, and healthy pre-antral follicles were used for a pre-antral follicle culturing. One separated pre-antral follicle was used for a single-follicle culturing, and a cluster including two to four pre-antral follicles joined together was used for culturing a cluster of multiple follicles.
(§2) After 25 20 μl culture liquid droplets were made on each culture dish (Falcon 3000, BD Biosciences, 60×15 mm), the collected single pre-antral follicle, or the cluster of multiple follicles consisting of 2 to 4 joined pre-antral follicles were seeded to each droplet. Then, those follicles were cultured in a 5% CO2 incubator at 37° C. for about 2 weeks. The culture liquid used here is Opti-MEM medium (Invitrogen) including insulin, 5% bovine serum, recombinant follicle stimulating hormone (FSH, Gonal-F®, Merck Serono, 0.2 IU/mL) and recombinant luteinizing hormone (LH, Luveris®, Merck Serono, 0.1 IU/mL). The culture liquid was changed in half with new medium every two days. In culturing process, a follicle morphology was observed using an inverted microscope (TE-2000; Nikon).
(§3) In order to observe a follicle culturing effect based on a regulation of the angiotensin II receptor, the single pre-antral follicle and the cluster of multiple follicles were compared and analyzed by divided into 3 groups: control group, angiotensin II receptor agonist (CGP-42112, Sigma)-treated group, and angiotensin II receptor antagonist (Saralasin, Sigma)-treated group. Specifically, the single pre-antral follicle and the cluster of multiple follicles were treated with the angiotensin II receptor agonist or the angiotensin II receptor antagonist to have a concentration of 10 ug/mL from day 5 of culturing.
(§4) On the 12th day of the culturing, it was observed that the pre-antral follicle was matured into an antral follicle. Then, the antral follicle was treated with recombinant human […], rhCG, Ovidrel®, Merck Serono) of 1.5 IU/m and human epidermal growth factor (hEGF) of 5 ng/mL in order to induce ovulation. At 16 to 18 hours after the ovulation induction, ovulation rate and maturation rate were calculated.
(§5) Specifically, the ovulation rate was calculated by counting the number of follicles ovulated after administration of the human […] and the human epidermal growth factor among the seeded follicles, and the maturation rate was calculated by counting the number of ova in MII phase among the ovulated ova.
In order to investigate effect of angiotensin II in culturing a single-follicle, growth and maturation rates based on the treatment with angiotensin II receptor agonist or angiotensin II receptor antagonist were intended to be investigated. […] Further, ovulation rates were investigated by inducing ovulation in the cultured follicles.

[2] = system: cluster of multiple follicles; assay: in vitro culturing of a cluster of multiple follicles (growth, follicle fluid, maturation rate); details: for growth of the cluster of multiple follicles: cluster of two to four joined follicles, fifth day compared with 13th day
From the text: as §1, §2, §3, §4
as §5, with “ova. […]” for “ova.”

[3] = system: multiple follicles cultured collectively; assay: culturing multiple follicles collectively (growth, follicle fluid); details: multiple follicles collectively treated with agonist; bottom of FIG. 8
From the text: as §1, with “follicles. […]” for “follicles.”
In order to observe a follicle culturing effect based on a regulation of the angiotensin II receptor, the single pre-antral follicle and the cluster of multiple follicles were compared and analyzed by divided into 3 groups: control group, angiotensin II receptor agonist (CGP-42112, Sigma)-treated group, and angiotensin II receptor antagonist (Saralasin, Sigma)-treated group. […]
On the 12th day of the culturing, it was observed that the pre-antral follicle was matured into an antral follicle. […] At 16 to 18 hours after the ovulation induction, ovulation rate and maturation rate were calculated. […]

[4] = system: mature follicle ovulated from cultured follicles; assay: in vitro fertilization of ova from cultured follicles and embryo observation
Procedure: In vitro fertilization was performed to evaluate fertilization rates of the ova obtained by the induction of ovulation. Specifically, a mature follicle ovulated in HTF (human tubal fluid) medium in the 5% CO2 incubator at 37° C. was fertilized with a sperm collected from a 8 week old male C57BL6 mouse. When cell division occur or two pronuclei are seen and a second polar body is observed, the ovum is regarded as fertilized.
In order to further confirm the effect of the angiotensin II in culturing the cluster of multiple follicles, maturation rate and fertilization rate were intended to be checked. Mature follicles were ovulated by treating them with the angiotensin II receptor agonist and inducing the ovulation via the method of Example 1 to Example 5. Then, the ovulated mature follicles were fertilized with sperms.

[5] = 10 ug/mL from day 5, FIG. 3, FIG. 8 top

CNCC(=O)N[C@@H](CCCN=C(N)N)C(=O)N[C@H](C(=O)N[C@@H](Cc1ccc(O)cc1)C(=O)N[C@H](C(=O)N[C@@H](Cc1cnc[nH]1)C(=O)N1CCC[C@H]1C(=O)N[C@@H](C)C(=O)O)C(C)C)C(C)C [angiotensin II receptor antagonist, Saralasin]
ovulation rate [1]: not significantly different | growth of the follicle [1]: growing at a level similar to a single-follicle (control group, CTL) that had not been treated | growth of the cluster of multiple follicles [2, 5]: did not grow simultaneously but fell into apoptosis during development

CGP-42112 [angiotensin II receptor agonist]
follicle fluid accumulation in the follicles [3]: almost no follicle fluid accumulation | growth of the follicles [3]: all follicles promoted to grow but fell into apoptosis during development | maturation rate ([1]; single-follicle culturing with agonist treatment, ova in MII phase among ovulated ova, FIG. 5): 11% | ovulation rate [1]: not significantly different | growth of the follicle [1]: growing at a level similar to a single-follicle (control group, CTL) that had not been treated | cleavage of an embryo ([4]; after fertilizing matured follicles from agonist-treated cultures, FIG. 7): progression of cleavage of an embryo was observed | fertilization rates ([4]; single-follicle culturing compared with culturing of the cluster of multiple follicles, agonist treated, FIG. 6): no significant difference | accumulation of the follicle fluid in the follicle ([2]; cluster of multiple follicles, 10 ug/mL from day 5, FIG. 3, FIG. 8 top): increased; also recorded: clearly observed in the all follicles | growth of the cluster of multiple follicles [2, 5]: growth of all follicles was significantly promoted; also recorded: significantly promoted to grow | maturation rate ([2]; culturing of the cluster of multiple follicles with agonist treatment, ova in MII phase among ovulated ova, FIG. 5): 26.8%
